Test results as given in ChEMBL document CHEMBL5634077, “Recent advances in 1,2,3- and 1,2,4-triazole hybrids as antimicrobials and their SAR: A critical review” (2023).
In brackets after ≈: the same amount, converted by molar mass.

Experiments:
Format in all cases: functional
Staphylococcus aureus [1] = assay: Antibacterial activity against Methicillin-resistant Staphylococcus aureus assessed as bacterial growth inhibition
[2] = test system: Staphylococcus epidermidis; assay: Antibacterial activity against Methicillin-resistant Staphylococcus epidermidis assessed as bacterial growth inhibition
[3] = test system: Staphylococcus epidermidis; assay: Antibacterial activity against Methicillin-sensitive Staphylococcus epidermidis assessed as bacterial growth inhibition
Enterococcus faecium = assay: Antibacterial activity against Enterococcus faecium assessed as inhibition of bacterial growth
Enterococcus faecalis = assay: Antibacterial activity against Enterococcus faecalis assessed as bacterial growth inhibition
Staphylococcus aureus [4] = assay: Antibacterial activity against Methicillin-sensitive Staphylococcus aureus assessed as bacterial growth inhibition
Staphylococcus aureus [5] = assay: Antibacterial activity against Staphylococcus aureus assessed as reduction in microbial growth incubated for 18 to 24 hrs by serial dilution method; conditions: time 18-24 hrs
Staphylococcus aureus [6] = assay: Antibacterial activity against methicillin-resistant Staphylococcus aureus assessed as reduction in microbial growth incubated for 18 to 24 hrs by serial dilution method; conditions: time 18-24 hrs
Staphylococcus aureus [7] = assay: Antibacterial activity against methicillin-sensitive Staphylococcus aureus assessed as reduction in microbial growth incubated for 18 to 24 hrs by serial dilution method; conditions: time 18-24 hrs
Bacillus subtilis [8] = assay: Antibacterial activity against Bacillus subtilis MTCC 441 assessed as reduction in microbial growth
[9] = test system: Staphylococcus epidermidis; assay: Antibacterial activity against Staphylococcus epidermidis assessed as reduction in microbial growth
Escherichia coli = assay: Antibacterial activity against Escherichia coli MTCC 16521 assessed as reduction in microbial growth
Candida albicans = assay: Antifungal activity against Candida albicans MTCC 227 assessed as inhibition of fungal growth
Aspergillus niger = assay: Antifungal activity against Aspergillus niger MTCC 8189 assessed as inhibition of fungal growth
[10] = test system: Staphylococcus epidermidis; assay: Antibacterial activity against Staphylococcus epidermidis assessed as inhibition of bacterial growth by microdilution method
Bacillus subtilis [11] = assay: Antibacterial activity against Bacillus subtilis assessed as inhibition of bacterial growth by microdilution method
Staphylococcus aureus [12] = assay: Antibacterial activity against Staphylococcus aureus assessed as inhibition of bacterial growth by microdilution method

SMILES: COc1c(N2C[C@H]3CCCN(C(=O)Cn4cc(CN5C(=O)C(=O)c6ccccc65)nn4)[C@H]3C2)c(F)cc2c(=O)c(C(=O)O)cn(C3CC3)c12
- MIC (Staphylococcus aureus [1]): 0.06 µg/mL (≈ 0.0896 µM)
- MIC [2]: 0.06 µg/mL (≈ 0.0896 µM)
- MIC [3]: 0.06 µg/mL (≈ 0.0896 µM)
- MIC (Enterococcus faecium): 0.06 µg/mL (≈ 0.0896 µM)
- MIC (Enterococcus faecalis): 0.06 µg/mL (≈ 0.0896 µM)
- MIC (Staphylococcus aureus [4]): 0.06 µg/mL (≈ 0.0896 µM)

SMILES: COc1c(N2CCN(C(=O)Cn3cc(CN4C(=O)C(=O)c5cc(C)ccc54)nn3)C(C)C2)c(F)cc2c(=O)c(C(=O)O)cn(C3CC3)c12 (centres undefined)
- MIC (Staphylococcus aureus [5]): 0.03 µg/mL
- MIC (Staphylococcus aureus [6]): 0.03 µg/mL
- MIC (Staphylococcus aureus [7]): 0.03 µg/mL

SMILES: COc1c(N2CCN(C(=O)Cn3cc(CN4C(=O)C(=O)c5cc(F)ccc54)nn3)C(C)C2)c(F)cc2c(=O)c(C(=O)O)cn(C3CC3)c12 (centres undefined)
- MIC (Staphylococcus aureus [5]): 0.03 µg/mL
- MIC (Staphylococcus aureus [6]): 0.03 µg/mL
- MIC (Staphylococcus aureus [7]): 0.03 µg/mL

SMILES: CO/N=C1/C(=O)N(Cc2cn(CC(=O)N3CCN(c4c(F)cc5c(=O)c(C(=O)O)cn(C6CC6)c5c4OC)CC3C)nn2)c2ccc(F)cc21 (centres undefined)
- MIC (Staphylococcus aureus [5]): 0.03 µg/mL
- MIC (Staphylococcus aureus [6]): 0.03 µg/mL
- MIC (Staphylococcus aureus [7]): 0.03 µg/mL

SMILES: CCO/N=C1/C(=O)N(Cc2cn(CC(=O)N3CCN(c4c(F)cc5c(=O)c(C(=O)O)cn(C6CC6)c5c4OC)CC3C)nn2)c2ccc(C)cc21 (centres undefined)
- MIC (Staphylococcus aureus [5]): 0.03 µg/mL
- MIC (Staphylococcus aureus [6]): 0.03 µg/mL
- MIC (Staphylococcus aureus [7]): 0.03 µg/mL

SMILES: CCO/N=C1/C(=O)N(Cc2cn(CC(=O)N3CCN(c4c(F)cc5c(=O)c(C(=O)O)cn(C6CC6)c5c4OC)CC3C)nn2)c2ccccc21 (centres undefined)
- MIC (Staphylococcus aureus [5]): 0.03 µg/mL
- MIC (Staphylococcus aureus [6]): 0.03 µg/mL
- MIC (Staphylococcus aureus [7]): 0.03 µg/mL

SMILES: O=C(NCc1cn(CCCCn2cc(CNC(=O)Nc3ccc(F)cc3)nn2)nn1)Nc1ccc(F)cc1
- MIC (Bacillus subtilis [8]): 6 µM
- MIC [9]: 6 µM
- MIC (Escherichia coli): 6 µM
- MIC (Candida albicans): 6 µM (≈ 3.15 µg/mL)
- MIC (Aspergillus niger): 6 µM (≈ 3.15 µg/mL)

SMILES: O=C(NCc1cn(CCCn2cc(CNC(=O)Nc3ccc(Cl)cc3)nn2)nn1)Nc1ccc(Cl)cc1
- MIC (Bacillus subtilis [8]): 6 µM
- MIC [9]: 6 µM
- MIC (Escherichia coli): 6 µM
- MIC (Candida albicans): 6 µM (≈ 3.26 µg/mL)
- MIC (Aspergillus niger): 6 µM (≈ 3.26 µg/mL)

SMILES: COc1c(N2CCN(C(=O)Cn3cc(CN4C(=O)C(=O)c5cc(Cl)cc(Cl)c54)nn3)C(C)C2)c(F)cc2c(=O)c(C(=O)O)cn(C3CC3)c12 (centres undefined)
- MIC (Staphylococcus aureus [5]): 0.03 µg/mL
- MIC (Staphylococcus aureus [6]): 0.03 µg/mL
- MIC (Staphylococcus aureus [7]): 0.03 µg/mL

SMILES: Fc1cc(-n2cc(COc3cccc4cccnc34)nn2)ccc1N1CCOCC1
- MIC [10]: 25 µg/mL (≈ 61.7 µM)
- MIC (Bacillus subtilis [11]): 25 µg/mL (≈ 61.7 µM)
- MIC (Staphylococcus aureus [12]): 50 µg/mL (≈ 123 µM)

SMILES: O=C(NCc1cn(CCCCn2cc(CNC(=O)Nc3ccc(Cl)cc3)nn2)nn1)Nc1ccc(Cl)cc1
- MIC (Bacillus subtilis [8]): 6 µM
- MIC [9]: 6 µM
- MIC (Escherichia coli): 6 µM
- MIC (Candida albicans): 6 µM (≈ 3.34 µg/mL)
- MIC (Aspergillus niger): 6 µM (≈ 3.34 µg/mL)

SMILES: O=C(NCc1cn(CCCCCn2cc(CNC(=O)Nc3ccc(F)cc3)nn2)nn1)Nc1ccc(F)cc1
- MIC (Bacillus subtilis [8]): 6 µM
- MIC [9]: 6 µM
- MIC (Escherichia coli): 6 µM
- MIC (Candida albicans): 6 µM (≈ 3.23 µg/mL)
- MIC (Aspergillus niger): 6 µM (≈ 3.23 µg/mL)

SMILES: COc1c(N2CCN(C(=O)Cn3cc(CN4C(=O)C(=O)c5ccccc54)nn3)C(C)C2)c(F)cc2c(=O)c(C(=O)O)cn(C3CC3)c12 (centres undefined)
- MIC (Staphylococcus aureus [5]): 0.03 µg/mL
- MIC (Staphylococcus aureus [6]): 0.03 µg/mL
- MIC (Staphylococcus aureus [7]): 0.03 µg/mL

SMILES: CCO/N=C1/C(=O)N(Cc2cn(CC(=O)N3CCN(c4c(F)cc5c(=O)c(C(=O)O)cn(C6CC6)c5c4OC)CC3C)nn2)c2ccc(F)cc21 (centres undefined)
- MIC (Staphylococcus aureus [5]): 0.03 µg/mL
- MIC (Staphylococcus aureus [6]): 0.03 µg/mL
- MIC (Staphylococcus aureus [7]): 0.03 µg/mL

SMILES: Fc1cc(-n2cc(COc3cc(Cl)cc(Cl)c3)nn2)ccc1N1CCOCC1
- MIC [10]: 12.5 µg/mL (≈ 29.5 µM)
- MIC (Bacillus subtilis [11]): 12.5 µg/mL (≈ 29.5 µM)
- MIC (Staphylococcus aureus [12]): 6.25 µg/mL (≈ 14.8 µM)

SMILES: COc1ccc(NC(=O)NCc2cn(CCCCCCn3cc(CNC(=O)Nc4ccc(OC)cc4)nn3)nn2)cc1
- MIC (Bacillus subtilis [8]): 6 µM
- MIC [9]: 6 µM
- MIC (Escherichia coli): 6 µM
- MIC (Candida albicans): 6 µM (≈ 3.46 µg/mL)
- MIC (Aspergillus niger): 6 µM (≈ 3.46 µg/mL)

SMILES: COc1ccc(NC(=O)NCc2cn(CCCCn3cc(CNC(=O)Nc4ccc(OC)cc4)nn3)nn2)cc1
- MIC (Bacillus subtilis [8]): 6 µM
- MIC [9]: 6 µM
- MIC (Escherichia coli): 6 µM
- MIC (Candida albicans): 6 µM (≈ 3.29 µg/mL)
- MIC (Aspergillus niger): 5 µM (≈ 2.74 µg/mL)

SMILES: O=C(OCc1cn(-c2ccc(N3CCOCC3)c(F)c2)nn1)c1cc2ccccc2[nH]1
- MIC [10]: 3.12 µg/mL (≈ 7.4 µM)
- MIC (Bacillus subtilis [11]): 25 µg/mL (≈ 59.3 µM)
- MIC (Staphylococcus aureus [12]): 25 µg/mL (≈ 59.3 µM)

SMILES: Fc1ccccc1OCc1cn(-c2ccc(N3CCOCC3)c(F)c2)nn1
- MIC [10]: 6.25 µg/mL (≈ 16.8 µM)
- MIC (Bacillus subtilis [11]): 3.12 µg/mL (≈ 8.38 µM)
- MIC (Staphylococcus aureus [12]): 12.5 µg/mL (≈ 33.6 µM)

SMILES: Fc1cc(-n2cc(CSc3nc4ccccc4o3)nn2)ccc1N1CCOCC1
- MIC [10]: 6.25 µg/mL (≈ 15.2 µM)
- MIC (Bacillus subtilis [11]): 12.5 µg/mL (≈ 30.4 µM)
- MIC (Staphylococcus aureus [12]): 25 µg/mL (≈ 60.8 µM)

SMILES: Fc1ccc(OCc2cn(-c3ccc(N4CCOCC4)c(F)c3)nn2)cc1
- MIC [10]: 3.12 µg/mL (≈ 8.38 µM)
- MIC (Bacillus subtilis [11]): 1.56 µg/mL (≈ 4.19 µM)
- MIC (Staphylococcus aureus [12]): 3.12 µg/mL (≈ 8.38 µM)

SMILES: CO/N=C1/C(=O)N(Cc2cn(CC(=O)N3CCN(c4c(F)cc5c(=O)c(C(=O)O)cn(C6CC6)c5c4OC)CC3C)nn2)c2c(F)cccc21 (centres undefined)
- MIC (Staphylococcus aureus [5]): 0.03 µg/mL
- MIC (Staphylococcus aureus [6]): 0.03 µg/mL
- MIC (Staphylococcus aureus [7]): 0.03 µg/mL

SMILES: COc1c(N2CCN(C(=O)Cn3cc(CN4C(=O)/C(=N/O)c5cc(C)ccc54)nn3)C(C)C2)c(F)cc2c(=O)c(C(=O)O)cn(C3CC3)c12 (centres undefined)
- MIC (Staphylococcus aureus [5]): 0.03 µg/mL
- MIC (Staphylococcus aureus [6]): 0.03 µg/mL
- MIC (Staphylococcus aureus [7]): 0.03 µg/mL
